Here are results for one compound from patent US20120177601A1, “TREATMENT OF HEPATITIS C VIRUS INFECTIONS” (THE USA AS REPRESENTED BY THE SECRETARY OF THE DEPARTMENT …, priority 2009, published 2012).

Where a name gives a salt, the structure may show the parent alone.

The Ki is a measure of affinity in units of concentration, obtained from inhibition or displacement.

Data set [1] concerns the target T1, endogenous NS3/4A protease from replicons (Hepatitis C virus genotype 1b, UniProt Q9WMX2).
T1 construct: For assays employing endogenous NS3/4A protease; expressed in transfected cells; host or cells: HCV replicon cells (Huh5-15 sub-genomic or Huh7.5FL Con1), Triton X-100 lysate
The data set is described as follows: Endogenous NS3/4A protease assay with replicon lysates (FRET). It counts as biochemical, HCV. The settings on record: protease freshly prepared from replicons. Here is the method:
For assays employing endogenous NS3/4A protease, the high-throughput FRET assay was used with modifications (Yu et al., 20009). Replicon cells at 90% confluence were lysed in ice-cold 1.25% Triton X-100 lysis buffer (Yu et al., 20009). Serial dilutions of lysates were added in triplicate to black 96-well plates, together with designated concentrations of tetrapyrrole. The HiLyte Flur™ TR/QXL™ 610 substrate solution (AnaSpec) was prepared according to the manufacturer's instructions. The plate and substrate were incubated at 37° C. for 15 min, and then 50 μl substrate solution was added to each well. The plates were incubated at room temperature for 30 min, avoiding direct light. The fluorescence intensity was then measured as above for recombinant enzyme assays using FLUOstar Optima (BMG Lab Tech, Cary, N.C.). To ensure specificity for the NS3/4A protease, lysates of parental Huh7 and Huh7.5 cells were run in every assay and the results subtracted as background fluorescence.
(In general: In antiviral work, replicon cells carry a viral genome segment that copies itself.)

In data set [2] the test system is Huh5-15NS replicon (sub-genomic HCV RNA). The data set can be described thus: HCV replication in nonstructural (NS) replicon cells, real-time RT-PCR (ΔCT). It counts as cell-based. The settings on record: NS replicon, 48 hr. An excerpt: (§1) Cell lines and cell culture. The human hepatoma cell line (Huh5-15) with replicating sub-genomic HCV RNA (Lohmann et al., 1999) was a kind gift of Dr. Volker Lohmann (Institute for Virology, Johannes-Gutenberg University, Mainz, Germany), and cultivated as described (Zhu et al., 2008). Huh7.5 cells harboring full length (Huh7.5FL) Conl replicons (Blight et al., 2002) were a kind gift of Dr. Charles Rice (Rockefeller University, New York, N.Y.). These cells were passed as recommended by their laboratory of origin (Blight et al., 2002). An infectious clone of HCV, J6/JFH, was inoculated into Huh7.5 cells and the cultures passed as previously described (Lindenbach et al., 2005). Cells were incubated with BV, BR, or FeCl2 for 24-48 h in DMEM containing 5% FBS.
(§2) Quantitative Real-time RT-PCR. Total RNA was extracted from cells using Trizol reagent (Invitrogen, Carlsbad, Calif.), treated with Turbo RNase free DNase (Ambion, TX), and processed as described (Zhu et al., 2008). To assess replication, the primers and probe designed by Takeuchi et al. (1999) targeting sequences located in 5′UTR (nt130-290) were employed as described for each replicon line (Blight et al., 2002; Lohmann et al., 2003). Real-time RT-PCR was performed using Taq DNA polymerase with the TaqMan Universal PCR Master Mix Protocol (Perkin Elmer Applied Biosystems, Foster City, Calif.). Quantitation was performed using the comparative cycle threshold (ΔCT) method as described previously (Abdalla et al., 2004).

The conditions of data set [3]: in vivo; cited from earlier work.
The test system of data set [4] is LPS induced septic shock. The settings on record: rats, 35 mg/kg; cited from earlier work.
For data set [5], the system named is Huh7.5FL replicon (full length Con1). The data set is described as follows: HCV replication in full-length (FL) replicon cells, real-time RT-PCR (ΔCT). Type of data set: cell-based. The settings on record: FL replicon, 48 hr.
Excerpt: as §1, §2

The subject of data set [6] is NS5A and core protein in NS and FL replicons. The data set can be described thus: Western blot / immunoprecipitation of HCV proteins in replicons. Type of data set: cell-based. How it is done: Western blot analysis. Western blots (WB) were performed as previously described using enhanced chemiluminescence for signal detection (ECLTM, Amersham) (Abdalla et al., 2005). Signal intensities were quantified using Image J software (NIH).
Immunoprecipitation of NS5A. Log-phase replicons were treated with various concentrations of BV for 48 hr, washed, lysed in cell lysis buffer (Cell Signaling Technology, Beverly, Mass.) and clarified by cold centrifugation (14,000×g for 10 min). An aliquot of supernatant containing 100 μg protein was incubated with 1 μg of HCV NS5A monoclonal antibody (Meridian Life Science, Saco, Me.) and 20 μl of rProtein G Agarose (Invitrogen, CA) overnight at 4° C. The agarose was collected by 3000×g spin, washed three times with ice-cold PBS, then dissolved in 40 μL 2× Laemmli sample buffer (Bio-Rad, CA) and assayed by WB.
A general note: In western blotting, separated proteins are transferred to a membrane and probed.

Data set [7] has as its system HCV replication in FL and NS replicons. The data set is described as follows: BV with α-interferon, HCV replication in replicons. Type of data set: cell-based. The settings on record: 50 or 100 μM BV overnight with α-interferon. Here is the method:
FL (FIG. 7A) or NS (FIG. 7B) replicons were treated with indicated amounts of α-interferon alone or in the presence of 50 or 100 μM BV overnight. HCV replication was determined by real-time RT-PCR using the comparative cycle threshold (ΔCT) method. (*) p<0.01 vs. control; (#) p<0.005 vs. control.
as §2

The test system of data set [8] is J6/JFH infectious HCV in Huh7.5 cells. The data set is described as follows: J6/JFH HCV infection of Huh7.5 cells (immunostaining, HCV RNA). It counts as cell-based. The settings on record: BV 20-200 μM, 72 hr; HCV polyvalent sera immunoreactivity and HCV RNA.
Excerpt: as §1, with “Cells were incubated with BV, BR, or FeCl2 for 24-48 h in DMEM containing 5% FBS.” left out
Quantitative Real-time RT-PCR. Total RNA was extracted from cells using Trizol reagent (Invitrogen, Carlsbad, Calif.), treated with Turbo RNase free DNase (Ambion, TX), and processed as described (Zhu et al., 2008). […] Quantitation was performed using the comparative cycle threshold (ΔCT) method as described previously (Abdalla et al., 2004).
Immunocytochemical staining. […] Antibody binding was evaluated following labeling with anti-human secondary antibody-alkaline phosphatase conjugate and results recorded by photomicroscopy.

Data set [9] concerns vascular injury. The settings on record: rats, 50 mg/kg; cited from earlier work.
In data set [10] the target is HIV-1 protease (Human immunodeficiency virus type 1 group M subtype B, UniProt P04585). The settings on record: McPhee et al. 1996; cited from earlier work.

T1 sequence (Q9WMX2 1658-1711): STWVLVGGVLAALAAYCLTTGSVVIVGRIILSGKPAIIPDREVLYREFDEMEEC
T1 sequence (Q9WMX2 1027-1657): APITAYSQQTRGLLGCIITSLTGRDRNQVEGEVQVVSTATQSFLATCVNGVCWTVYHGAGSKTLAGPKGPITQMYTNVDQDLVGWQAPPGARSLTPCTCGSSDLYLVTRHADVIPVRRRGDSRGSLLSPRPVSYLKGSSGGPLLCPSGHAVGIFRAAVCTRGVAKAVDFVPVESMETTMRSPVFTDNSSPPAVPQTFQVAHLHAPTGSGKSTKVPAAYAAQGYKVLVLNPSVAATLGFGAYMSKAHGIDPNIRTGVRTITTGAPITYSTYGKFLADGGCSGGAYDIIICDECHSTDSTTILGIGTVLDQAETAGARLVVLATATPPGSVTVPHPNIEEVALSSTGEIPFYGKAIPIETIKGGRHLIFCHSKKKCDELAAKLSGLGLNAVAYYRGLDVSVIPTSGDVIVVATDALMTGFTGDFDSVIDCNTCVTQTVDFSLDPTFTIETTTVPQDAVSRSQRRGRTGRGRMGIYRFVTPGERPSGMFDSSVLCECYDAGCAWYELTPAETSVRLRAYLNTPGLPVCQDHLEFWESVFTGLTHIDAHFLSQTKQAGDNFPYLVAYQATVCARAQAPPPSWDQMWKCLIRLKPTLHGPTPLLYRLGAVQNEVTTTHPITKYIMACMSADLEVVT

Consider `C=CC1=C(C)/C(=C/C2=NC(=C\c3[nH]c(/C=C4\NC(=O)C(C)=C4C=C)c(C)c3CCC(=O)O)/C(CCC(=O)O)=C2C)NC1=O` [Biliverdin, biliverdin-IX-α hydrochloride], for which the “inhibition of endogenous protease compared with recombinant enzyme” value in data set [1] is on record as “slightly higher concentrations”. Further, the “concentration showing significant antiviral activity / required to suppress HCV replication” value in [2] and in [5] was 20 µM each time. The oral bioavailability result in [3] is recorded as “relatively poor oral bioavailability”. The “LPS induced septic shock” value in data set [4] is “protected rats against LPS induced septic shock”. In addition, the “NS5A protein level (WB)” value in data set [6] (both replicon lines, 24 hr, BV 20 μM, BR 200 μM, FeCl2 100 mM as printed) is on record as “decreased NS5A”. For the same compound, in data set [6] (full-length replicons, 24 hr, BV 20 μM, BR 200 μM, FeCl2 100 mM as printed), the “core protein level (WB)” value is “reduced”. Besides, the “NS5A by WB or immunoprecipitation, concentration series” value in data set [6] (full-length replicons, various concentrations of BV) is “dose-dependently decreased NS5A”. Moreover, the “effect of BV on α-interferon antiviral activity” value in [7] was “clear additive effect”. Further, in [8], the “Huh7.5 cell infection with J6/JFH” value is reported as “markedly decreased”. Moreover, the vascular injury entry in data set [9] is given as “prevented vascular injury”. Also, the Ki in data set [10] was 1000 nM.
